Test results from paper PMC11997881, “Comprehensive Characterization of Bruton’s Tyrosine Kinase Inhibitor Specificity, Potency, and Biological Effects: Insights into Covalent and Noncovalent Mechanistic Signatures” (ACS Pharmacology & Translational Science, 2025).

Columns and labels:
ERBB3 = ERBB3 (Homo sapiens, UniProt P21860); test: scanMAX binding POC, ERBB3; conditions: 1 μM
BTK = conditions: cited from earlier work
EGFR = EGFR (Homo sapiens, UniProt P00533); test: scanMAX binding POC, EGFR; conditions: 1 μM
JNK2 (MAPK9) = JNK2 (MAPK9) (Homo sapiens, UniProt P45984); test: scanMAX binding POC, JNK2; conditions: 1 μM
ERBB4 = ERBB4 (Homo sapiens, UniProt Q15303); test: scanMAX binding POC, ERBB4; conditions: 1 μM
TEC = molecular target: T1, TEC (Homo sapiens, UniProt P42680); test: scanMAX binding POC, TEC; conditions: 1 μM
T1 sequence (P42680 1-631): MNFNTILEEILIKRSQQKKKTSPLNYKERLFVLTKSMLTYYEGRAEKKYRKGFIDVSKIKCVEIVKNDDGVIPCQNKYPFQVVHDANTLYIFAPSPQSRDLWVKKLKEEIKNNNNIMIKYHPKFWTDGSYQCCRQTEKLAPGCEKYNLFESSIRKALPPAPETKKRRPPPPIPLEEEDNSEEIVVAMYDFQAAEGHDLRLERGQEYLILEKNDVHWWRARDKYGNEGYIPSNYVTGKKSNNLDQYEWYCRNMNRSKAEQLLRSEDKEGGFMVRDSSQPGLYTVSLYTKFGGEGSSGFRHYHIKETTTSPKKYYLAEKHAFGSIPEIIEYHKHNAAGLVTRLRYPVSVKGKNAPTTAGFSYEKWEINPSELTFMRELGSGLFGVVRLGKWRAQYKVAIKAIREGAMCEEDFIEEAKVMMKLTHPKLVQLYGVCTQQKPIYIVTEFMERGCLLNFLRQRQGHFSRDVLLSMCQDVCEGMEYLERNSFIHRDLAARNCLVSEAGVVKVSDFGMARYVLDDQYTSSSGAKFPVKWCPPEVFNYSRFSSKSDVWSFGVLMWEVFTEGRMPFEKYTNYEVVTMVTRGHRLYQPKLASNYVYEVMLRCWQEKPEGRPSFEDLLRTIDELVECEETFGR

ITK = molecular target: T2, ITK (Homo sapiens, UniProt Q08881); test: scanMAX binding POC, ITK; conditions: 1 μM
T2 sequence (Q08881 1-620): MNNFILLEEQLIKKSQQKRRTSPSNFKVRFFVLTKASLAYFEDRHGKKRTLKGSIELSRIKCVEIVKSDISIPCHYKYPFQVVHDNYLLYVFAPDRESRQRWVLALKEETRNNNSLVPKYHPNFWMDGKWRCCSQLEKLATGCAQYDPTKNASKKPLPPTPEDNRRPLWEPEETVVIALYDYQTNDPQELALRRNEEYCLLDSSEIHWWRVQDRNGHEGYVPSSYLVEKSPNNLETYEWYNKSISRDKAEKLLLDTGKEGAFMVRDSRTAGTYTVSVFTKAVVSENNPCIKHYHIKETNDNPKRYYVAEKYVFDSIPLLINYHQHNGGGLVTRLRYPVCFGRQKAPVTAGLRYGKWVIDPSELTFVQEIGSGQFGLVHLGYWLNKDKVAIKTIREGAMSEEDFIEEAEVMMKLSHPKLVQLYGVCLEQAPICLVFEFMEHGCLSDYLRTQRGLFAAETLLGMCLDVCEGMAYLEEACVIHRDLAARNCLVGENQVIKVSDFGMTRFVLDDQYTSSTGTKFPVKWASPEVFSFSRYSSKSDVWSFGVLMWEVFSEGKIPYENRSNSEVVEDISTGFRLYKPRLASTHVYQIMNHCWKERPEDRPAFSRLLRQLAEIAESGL

BLK = BLK (Homo sapiens, UniProt P51451); test: scanMAX binding POC, BLK; conditions: 1 μM
JNK1 (MAPK8) = JNK1 (MAPK8) (Homo sapiens, UniProt P45983); test: scanMAX binding POC, JNK1; conditions: 1 μM
Method: (§1) The compounds were diluted directly into the assays such that the final concentration of DMSO was 0.9%. No enzyme purification steps were performed on the protein extracts before adding them to the reaction mixture, and the protein extracts were diluted 10,000-fold in the final reaction mixture (the final DNA-tagged enzyme concentration was less than 0.1 nM). Binding assay mixtures were incubated at 25 °C with shaking for 1 h. […] The concentration of wild-type or mutant BTK in the eluates was then determined using quantitative PCR. […] Each assay’s affinity ligand concentration on the magnetic beads has been optimized to ensure that the true thermodynamic Kd values for competitor molecules were measured, as described in detail previously99.
(§2) Comparison of BTK inhibitor specificity to c-Jun N-terminal kinases (JNK1-3/MAPKP8-10).
(§3) a The percent of control (POC) is the percent of kinase that was competed off its control ligand relative to the positive and negative controls at the screening concentration56. A zero POC signifies that the compound

ERBB2 = ERBB2 (Homo sapiens, UniProt P04626); test: scanMAX binding POC, ERBB2; conditions: 1 μM
[1] = molecular target: T3, JAK3 (JH1 catalytic domain) (Homo sapiens, UniProt P52333); test: scanMAX binding POC, JAK3; conditions: 1 μM
T3 construct: The JAK3 POC is for its JH1 catalytic domain

TXK = molecular target: T4, TXK (Homo sapiens, UniProt P42681); test: scanMAX binding POC, TXK; conditions: 1 μM
T4 sequence (P42681 1-527): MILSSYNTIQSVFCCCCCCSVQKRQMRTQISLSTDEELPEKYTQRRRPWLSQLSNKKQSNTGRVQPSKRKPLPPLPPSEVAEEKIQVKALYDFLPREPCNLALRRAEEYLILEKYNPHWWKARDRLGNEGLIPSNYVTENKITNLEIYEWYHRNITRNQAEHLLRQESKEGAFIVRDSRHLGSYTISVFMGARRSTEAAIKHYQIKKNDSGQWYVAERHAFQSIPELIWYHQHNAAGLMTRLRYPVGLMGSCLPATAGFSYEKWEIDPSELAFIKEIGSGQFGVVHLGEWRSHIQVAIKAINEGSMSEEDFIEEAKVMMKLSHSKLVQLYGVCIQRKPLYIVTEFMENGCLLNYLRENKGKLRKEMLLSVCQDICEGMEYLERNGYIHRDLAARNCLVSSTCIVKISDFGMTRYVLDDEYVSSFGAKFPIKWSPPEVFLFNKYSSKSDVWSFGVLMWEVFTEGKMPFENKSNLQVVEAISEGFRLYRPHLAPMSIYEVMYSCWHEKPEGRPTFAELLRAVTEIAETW

JNK3 (MAPK10) = JNK3 (MAPK10) (Homo sapiens, UniProt P53779); test: scanMAX binding POC, JNK3; conditions: 1 μM
Method: as §1, §2, §3

Sequence of EGFR (P00533 25-1210): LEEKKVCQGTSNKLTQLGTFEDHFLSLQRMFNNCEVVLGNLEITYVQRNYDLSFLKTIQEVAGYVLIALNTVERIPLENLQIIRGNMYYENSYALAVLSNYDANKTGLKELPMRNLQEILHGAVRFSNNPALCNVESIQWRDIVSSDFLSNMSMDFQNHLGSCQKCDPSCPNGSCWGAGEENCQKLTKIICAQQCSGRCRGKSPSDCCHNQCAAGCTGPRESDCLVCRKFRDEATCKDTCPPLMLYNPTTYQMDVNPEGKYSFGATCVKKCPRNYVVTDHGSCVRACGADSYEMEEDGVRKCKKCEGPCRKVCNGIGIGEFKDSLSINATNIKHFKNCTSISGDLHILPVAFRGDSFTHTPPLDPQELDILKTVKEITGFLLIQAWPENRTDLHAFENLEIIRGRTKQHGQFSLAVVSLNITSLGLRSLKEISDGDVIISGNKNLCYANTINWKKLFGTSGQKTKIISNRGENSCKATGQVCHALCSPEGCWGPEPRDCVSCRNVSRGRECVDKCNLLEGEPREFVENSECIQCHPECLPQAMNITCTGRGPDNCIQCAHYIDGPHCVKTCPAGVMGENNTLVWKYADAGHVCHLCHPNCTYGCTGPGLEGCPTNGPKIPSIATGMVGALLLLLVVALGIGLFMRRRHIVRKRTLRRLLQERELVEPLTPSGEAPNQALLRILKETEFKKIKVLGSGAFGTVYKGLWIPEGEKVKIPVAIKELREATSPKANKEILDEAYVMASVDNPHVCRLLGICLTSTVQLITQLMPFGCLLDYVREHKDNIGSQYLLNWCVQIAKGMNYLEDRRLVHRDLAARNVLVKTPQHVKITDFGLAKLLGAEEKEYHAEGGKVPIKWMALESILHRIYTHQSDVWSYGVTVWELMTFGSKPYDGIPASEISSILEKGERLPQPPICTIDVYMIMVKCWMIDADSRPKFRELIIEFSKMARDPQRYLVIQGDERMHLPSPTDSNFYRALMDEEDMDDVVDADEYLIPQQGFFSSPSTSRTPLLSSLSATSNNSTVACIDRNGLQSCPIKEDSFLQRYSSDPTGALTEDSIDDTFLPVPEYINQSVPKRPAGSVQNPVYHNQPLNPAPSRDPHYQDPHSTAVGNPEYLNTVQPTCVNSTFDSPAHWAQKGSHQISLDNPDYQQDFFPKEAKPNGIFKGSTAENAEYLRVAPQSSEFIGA
T3 sequence (P52333 822-1111 limits assumed): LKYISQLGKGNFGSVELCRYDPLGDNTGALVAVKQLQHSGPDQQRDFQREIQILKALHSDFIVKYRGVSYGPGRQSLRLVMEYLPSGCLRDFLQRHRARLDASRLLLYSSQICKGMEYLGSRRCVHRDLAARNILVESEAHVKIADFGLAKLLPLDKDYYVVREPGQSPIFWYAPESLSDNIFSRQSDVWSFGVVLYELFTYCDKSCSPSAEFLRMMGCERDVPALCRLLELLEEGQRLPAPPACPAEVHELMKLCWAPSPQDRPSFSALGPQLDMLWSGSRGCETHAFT
Sequence of ERBB4 (Q15303 26-1308): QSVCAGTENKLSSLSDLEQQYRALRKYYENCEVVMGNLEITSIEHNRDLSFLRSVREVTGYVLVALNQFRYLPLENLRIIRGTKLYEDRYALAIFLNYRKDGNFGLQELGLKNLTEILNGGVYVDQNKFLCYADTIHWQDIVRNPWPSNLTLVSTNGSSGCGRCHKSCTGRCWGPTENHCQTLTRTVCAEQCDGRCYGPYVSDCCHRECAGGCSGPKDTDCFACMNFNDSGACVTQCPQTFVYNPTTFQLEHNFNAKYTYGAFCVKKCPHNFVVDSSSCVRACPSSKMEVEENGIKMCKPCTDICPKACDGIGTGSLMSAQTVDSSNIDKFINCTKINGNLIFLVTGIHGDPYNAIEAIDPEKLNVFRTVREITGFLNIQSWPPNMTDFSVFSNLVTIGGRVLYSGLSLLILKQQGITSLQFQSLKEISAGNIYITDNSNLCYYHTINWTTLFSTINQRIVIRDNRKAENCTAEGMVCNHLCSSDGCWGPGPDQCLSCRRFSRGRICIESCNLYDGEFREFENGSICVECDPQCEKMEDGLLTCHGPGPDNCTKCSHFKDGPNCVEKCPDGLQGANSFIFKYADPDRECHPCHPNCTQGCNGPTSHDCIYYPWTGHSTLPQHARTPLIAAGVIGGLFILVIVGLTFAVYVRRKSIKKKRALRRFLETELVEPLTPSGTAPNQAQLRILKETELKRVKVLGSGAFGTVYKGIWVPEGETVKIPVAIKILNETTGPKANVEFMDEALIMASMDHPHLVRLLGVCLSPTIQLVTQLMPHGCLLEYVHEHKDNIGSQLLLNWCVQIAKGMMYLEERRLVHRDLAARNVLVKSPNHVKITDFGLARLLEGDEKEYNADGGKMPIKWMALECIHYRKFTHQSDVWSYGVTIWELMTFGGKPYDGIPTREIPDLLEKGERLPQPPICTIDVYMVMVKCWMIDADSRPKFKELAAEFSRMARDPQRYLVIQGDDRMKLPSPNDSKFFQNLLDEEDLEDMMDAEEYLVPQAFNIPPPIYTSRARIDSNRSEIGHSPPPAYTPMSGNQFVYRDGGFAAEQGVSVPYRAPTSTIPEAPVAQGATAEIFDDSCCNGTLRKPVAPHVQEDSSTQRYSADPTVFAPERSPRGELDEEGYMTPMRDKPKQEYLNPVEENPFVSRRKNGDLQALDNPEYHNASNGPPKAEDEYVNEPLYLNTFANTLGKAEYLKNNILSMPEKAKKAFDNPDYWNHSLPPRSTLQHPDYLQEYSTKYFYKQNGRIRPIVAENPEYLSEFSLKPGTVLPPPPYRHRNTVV
Sequence of BLK (P51451 whole entry): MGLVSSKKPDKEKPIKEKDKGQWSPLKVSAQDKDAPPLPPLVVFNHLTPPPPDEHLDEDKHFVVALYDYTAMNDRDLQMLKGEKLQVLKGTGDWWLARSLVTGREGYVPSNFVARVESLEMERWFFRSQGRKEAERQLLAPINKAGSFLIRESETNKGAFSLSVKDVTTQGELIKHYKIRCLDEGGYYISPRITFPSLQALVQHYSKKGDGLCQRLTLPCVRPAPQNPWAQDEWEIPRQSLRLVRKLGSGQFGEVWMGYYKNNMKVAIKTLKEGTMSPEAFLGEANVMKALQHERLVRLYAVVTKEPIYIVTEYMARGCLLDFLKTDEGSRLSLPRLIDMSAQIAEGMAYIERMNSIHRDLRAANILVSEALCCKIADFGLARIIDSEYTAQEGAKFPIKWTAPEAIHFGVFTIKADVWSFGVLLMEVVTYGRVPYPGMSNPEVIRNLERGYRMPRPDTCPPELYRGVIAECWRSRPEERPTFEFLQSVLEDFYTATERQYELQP
Sequence of JNK2 (MAPK9) (P45984 whole entry): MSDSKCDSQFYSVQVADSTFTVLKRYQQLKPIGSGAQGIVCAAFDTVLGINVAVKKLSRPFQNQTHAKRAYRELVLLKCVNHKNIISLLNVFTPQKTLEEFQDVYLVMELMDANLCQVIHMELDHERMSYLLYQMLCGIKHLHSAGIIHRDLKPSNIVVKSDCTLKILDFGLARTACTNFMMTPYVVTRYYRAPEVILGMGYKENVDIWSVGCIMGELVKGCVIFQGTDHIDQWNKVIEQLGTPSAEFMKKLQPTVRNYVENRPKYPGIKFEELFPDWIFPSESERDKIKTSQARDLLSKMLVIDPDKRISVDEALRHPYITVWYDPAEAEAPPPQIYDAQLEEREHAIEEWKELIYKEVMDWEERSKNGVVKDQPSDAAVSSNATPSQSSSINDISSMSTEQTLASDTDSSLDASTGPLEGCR
Sequence of ERBB3 (P21860 20-1342): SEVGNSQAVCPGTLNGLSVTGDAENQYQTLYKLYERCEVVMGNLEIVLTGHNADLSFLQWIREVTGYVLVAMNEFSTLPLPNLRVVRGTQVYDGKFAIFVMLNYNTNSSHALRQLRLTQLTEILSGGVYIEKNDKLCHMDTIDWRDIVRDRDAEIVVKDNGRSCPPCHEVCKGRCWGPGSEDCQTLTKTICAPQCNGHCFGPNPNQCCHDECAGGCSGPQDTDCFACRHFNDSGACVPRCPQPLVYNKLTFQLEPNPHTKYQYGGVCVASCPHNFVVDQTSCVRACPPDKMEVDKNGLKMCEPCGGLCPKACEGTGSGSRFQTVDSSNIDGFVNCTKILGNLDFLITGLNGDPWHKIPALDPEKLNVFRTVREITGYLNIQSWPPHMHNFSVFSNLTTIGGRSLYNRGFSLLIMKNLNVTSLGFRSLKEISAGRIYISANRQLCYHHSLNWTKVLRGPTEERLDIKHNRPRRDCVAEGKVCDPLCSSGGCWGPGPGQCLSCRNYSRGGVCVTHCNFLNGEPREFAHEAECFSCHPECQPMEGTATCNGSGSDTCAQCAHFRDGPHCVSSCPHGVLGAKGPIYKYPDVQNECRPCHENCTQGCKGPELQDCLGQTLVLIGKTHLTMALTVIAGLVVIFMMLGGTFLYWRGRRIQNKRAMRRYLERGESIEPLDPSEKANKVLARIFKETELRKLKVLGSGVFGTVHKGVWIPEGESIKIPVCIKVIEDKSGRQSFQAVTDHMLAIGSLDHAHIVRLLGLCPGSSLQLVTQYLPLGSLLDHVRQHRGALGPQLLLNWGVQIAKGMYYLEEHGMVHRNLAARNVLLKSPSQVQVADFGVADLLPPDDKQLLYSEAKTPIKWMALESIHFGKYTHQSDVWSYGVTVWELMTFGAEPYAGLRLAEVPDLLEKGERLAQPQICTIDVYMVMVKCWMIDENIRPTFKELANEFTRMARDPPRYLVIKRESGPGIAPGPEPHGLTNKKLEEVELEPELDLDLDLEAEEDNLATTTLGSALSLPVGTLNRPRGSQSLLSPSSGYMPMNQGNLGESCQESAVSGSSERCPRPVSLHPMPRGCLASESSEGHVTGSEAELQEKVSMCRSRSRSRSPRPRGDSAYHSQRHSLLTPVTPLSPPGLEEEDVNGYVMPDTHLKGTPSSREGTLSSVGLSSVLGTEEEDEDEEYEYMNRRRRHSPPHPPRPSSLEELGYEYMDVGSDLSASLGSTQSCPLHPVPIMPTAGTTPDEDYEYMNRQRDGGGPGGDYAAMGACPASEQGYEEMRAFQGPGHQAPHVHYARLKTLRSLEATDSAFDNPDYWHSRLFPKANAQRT

| Compound | ERBB3 binding POC (ERBB3) | IC50 (BTK) [nM] | EGFR binding POC (EGFR) | JNK2 (MAPK9) POC (JNK2 (MAPK9)) | ERBB4 binding POC (ERBB4) | TEC binding POC (TEC) | ITK binding POC (ITK) | BLK binding POC (BLK) | JNK1 (MAPK8) POC (JNK1 (MAPK8)) | ERBB2 binding POC (ERBB2) | JAK3 binding POC [1] | TXK binding POC (TXK) | JNK3 (MAPK10) POC (JNK3 (MAPK10)) |
| --- | --- | --- | --- | --- | --- | --- | --- | --- | --- | --- | --- | --- | --- |
| C=CC(=O)N1CCC[C@@H](c2ccc(C(N)=O)c3[nH]ccc23)C1 [Elsubrutinib] | 74% of control | 180 | 90% of control | 91% of control | 91% of control | 18% of control | 94% of control | 15% of control | 96% of control | 73% of control | 0.15% of control | 25% of control | 94% of control |
| C[C@H]1CN(C2COC2)CCN1c1ccc(Nc2cc(-c3ccnc(N4CCn5c(cc6c5CC(C)(C)C6)C4=O)c3CO)cn(C)c2=O)nc1 [Fenebrutinib] | 78% of control | 2.3 | 95% of control | 100% of control | 100% of control | 17% of control | 25% of control | 60% of control | 100% of control | 97% of control | 95% of control | 53% of control | 100% of control |
| O=C(c1ccc(Oc2ccccc2)cc1Cl)c1c[nH]c2ncnc(N[C@@H]3CC[C@@H](CO)OC3)c12 [Nemtabrutinib] | 0.9% of control | 0.85 | 0% of control | 100% of control | 0.35% of control | 7.3% of control | 86% of control | 0.3% of control | 39% of control | 0% of control | 86% of control | 2.7% of control | 100% of control |
| COc1ccc(F)cc1C(=O)NCc1ccc(-c2nn([C@@H](C)C(F)(F)F)c(N)c2C(N)=O)cc1 [Pirtobrutinib] | 97% of control | 3.2 | 0.5% of control | 94% of control | 2% of control | 12% of control | 100% of control | 69% of control | 96% of control | 5.9% of control | 77% of control | 11% of control | 100% of control |
| C=CC(=O)Nc1cccc(Oc2nc(Nc3ccc(N4CCN(C)CC4)cc3)nc3ccoc23)c1 [Poseltinib] | 97% of control | 3 | 1.2% of control | 100% of control | 0.15% of control | 8.5% of control | 1% of control | 0.85% of control | 32% of control | 8.7% of control | 0.45% of control | 4.4% of control | 100% of control |
| C=CC(=O)Nc1cccc(Nc2nc(Nc3ccc(OCCOC)cc3)ncc2F)c1 [Spebrutinib] | 83% of control | […] | 49% of control | 8.4% of control | 17% of control | 8.1% of control | 51% of control | 22% of control | 4.8% of control | 57% of control | 0% of control | 4.5% of control | 3.9% of control |
